# According to ChEMBL document CHEMBL1201862, “PubChem BioAssay data set” (2004):
# Active and inactive are the calls of the source.
# Assays:
# [1] = system: HEK293; test: inhibition of NOD1-driven NF-kB reporter – cell-based, luminescence, uHTS, primary screen (AID 1578); assay type: functional; details: Homo sapiens
# [2] = system: HEK293; test: cells; assay type: functional, cell-based; details: Homo sapiens
# [3] = biological target: T1, Heat shock factor protein 1 (Mus musculus, UniProt P38532); test: decrease of HSF1-responsive luciferase luminescence – cell-based, NIH3T3, dose retest, confirmation (AID 2382); assay type: functional;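 further: NIH3T3 fibroblasts with HSF1-driven luciferase reporter stressed by proteasome inhibitor MG132; luminescence from HSF1-driven luciferase expression after 8 hours of MG132 stress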
# T1 sequence (P38532 whole entry): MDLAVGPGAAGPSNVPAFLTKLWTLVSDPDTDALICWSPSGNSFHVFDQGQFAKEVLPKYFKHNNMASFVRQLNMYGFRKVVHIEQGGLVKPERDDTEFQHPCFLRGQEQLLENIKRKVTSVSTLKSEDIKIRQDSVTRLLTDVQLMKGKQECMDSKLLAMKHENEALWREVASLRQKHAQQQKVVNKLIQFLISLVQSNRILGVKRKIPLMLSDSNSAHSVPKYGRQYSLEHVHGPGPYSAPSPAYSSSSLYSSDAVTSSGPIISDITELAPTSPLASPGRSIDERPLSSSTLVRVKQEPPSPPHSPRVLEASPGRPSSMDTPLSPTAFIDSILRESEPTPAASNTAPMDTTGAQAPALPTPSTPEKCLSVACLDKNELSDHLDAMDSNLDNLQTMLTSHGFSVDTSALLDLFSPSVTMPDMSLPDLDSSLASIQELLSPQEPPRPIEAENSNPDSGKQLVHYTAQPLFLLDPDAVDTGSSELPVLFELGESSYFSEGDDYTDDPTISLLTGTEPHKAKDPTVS
# [4] = system: HEK293; test: cells; assay type: functional, cell-based; details: Homo sapiens; remark: listed apart in the source
# [5] = biological target: Nucleotide-binding oligomerization domain-containing protein 2 (Homo sapiens, UniProt Q9HC29); test: inhibition of NOD2-driven NF-kB reporter – cell-based, luminescence, uHTS, HEK293 (AID 1566); assay type: functional
# [6] = system: HEK293; test: NOD2 signaling inhibitors in MDP-stimulated cells, cell-based, uHTS, luminescence (AID 2001); assay type: functional; details: Homo sapiens
# [7] = system: HEK293; test: cells; assay type: functional, cell-based; details: Homo sapiens; remark: listed apart in the source
# [8] = biological target: T2, Type-1 angiotensin II receptor (Homo sapiens, UniProt P30556); test: agonist activity at AGTR1 – cell-based, uHTS hits, selectivity assay for APJ receptor agonist project, dose response (AID 488865); assay type: functional;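 further: beta-arrestin recruitment to AT1 measured by enzyme fragment complementation luminescence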
# T2 sequence (P30556 whole entry): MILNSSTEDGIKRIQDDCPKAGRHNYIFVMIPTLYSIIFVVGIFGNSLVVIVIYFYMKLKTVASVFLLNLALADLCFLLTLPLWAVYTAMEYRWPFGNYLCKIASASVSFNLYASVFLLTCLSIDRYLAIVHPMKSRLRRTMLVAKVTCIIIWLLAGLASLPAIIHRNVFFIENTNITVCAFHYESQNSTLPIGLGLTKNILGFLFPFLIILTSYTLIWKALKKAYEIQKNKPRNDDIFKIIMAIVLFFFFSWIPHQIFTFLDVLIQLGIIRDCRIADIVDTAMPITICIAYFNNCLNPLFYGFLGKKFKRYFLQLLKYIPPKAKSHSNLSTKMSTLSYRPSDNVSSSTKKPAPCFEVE
# [9] = biological target: T3, Tyrosine-protein phosphatase non-receptor type 7 (Homo sapiens, UniProt P35236); assay type: functional
# T3 sequence (P35236 whole entry): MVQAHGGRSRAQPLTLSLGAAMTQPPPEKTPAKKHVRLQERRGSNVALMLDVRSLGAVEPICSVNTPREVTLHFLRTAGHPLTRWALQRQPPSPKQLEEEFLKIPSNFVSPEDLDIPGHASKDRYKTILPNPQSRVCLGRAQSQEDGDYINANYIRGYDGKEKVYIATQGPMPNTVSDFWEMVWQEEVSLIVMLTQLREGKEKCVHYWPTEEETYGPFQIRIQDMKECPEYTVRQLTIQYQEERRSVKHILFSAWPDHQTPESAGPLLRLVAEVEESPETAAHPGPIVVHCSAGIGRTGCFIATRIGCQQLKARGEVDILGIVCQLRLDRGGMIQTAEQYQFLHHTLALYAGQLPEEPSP
# [10] = biological target: Glyceraldehyde-3-phosphate dehydrogenase (Homo sapiens, UniProt P04406)
# [11] = biological target: T4, Dual specificity protein phosphatase 6 (Rattus norvegicus, UniProt Q64346)
# T4 sequence (Q64346 whole entry): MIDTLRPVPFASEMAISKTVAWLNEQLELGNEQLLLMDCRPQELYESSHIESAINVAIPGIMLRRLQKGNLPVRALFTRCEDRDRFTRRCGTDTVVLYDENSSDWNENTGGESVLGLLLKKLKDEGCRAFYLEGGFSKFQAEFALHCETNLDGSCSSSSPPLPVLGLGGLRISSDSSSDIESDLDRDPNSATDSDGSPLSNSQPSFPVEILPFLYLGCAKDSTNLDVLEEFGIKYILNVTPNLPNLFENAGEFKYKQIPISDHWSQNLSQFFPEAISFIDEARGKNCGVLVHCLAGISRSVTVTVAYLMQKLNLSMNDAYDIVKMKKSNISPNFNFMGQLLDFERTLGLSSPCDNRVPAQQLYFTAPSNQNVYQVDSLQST
# [12] = biological target: T5, Dual specificity protein phosphatase 3 (Homo sapiens, UniProt P51452); test: SAR VHR1 Fluorescent Assay for In Vitro dose response studies. [Related pubchem assays (depositor defined):AID1654, AID1661, AID1878, AID1992, AID2004, AID2070, AID2085]; assay type: functional
# [13] = biological target: T5, Dual specificity protein phosphatase 3; test: MOA VHR1 Fluorescent secondary assay for identification of redox-state modulating compounds. [Related pubchem assays (depositor defined):AID1654, AID1661, AID1878, AID1957]
# [14] = biological target: T3, Tyrosine-protein phosphatase non-receptor type 7; test: redox-active compounds inhibiting HePTP phosphatase – biochemical, fluorescence, mechanism study (AID 2068); assay type: functional
# [15] = biological target: T4, Dual specificity protein phosphatase 6; assay type: functional
# [16] = biological target: Alkaline phosphatase, placental type (Homo sapiens, UniProt P05187); test: human placental alkaline phosphatase inhibition – biochemical, luminescence, confirmation (AID 1512); assay type: functional
# [17] = biological target: T6, Alkaline phosphatase, tissue-nonspecific isozyme (Homo sapiens, UniProt P05186); test: potency against alkaline phosphatase TNAP – biochemical, luminescent, dose response, SAR follow-up (AID 1056)
# T6 sequence (P05186 whole entry): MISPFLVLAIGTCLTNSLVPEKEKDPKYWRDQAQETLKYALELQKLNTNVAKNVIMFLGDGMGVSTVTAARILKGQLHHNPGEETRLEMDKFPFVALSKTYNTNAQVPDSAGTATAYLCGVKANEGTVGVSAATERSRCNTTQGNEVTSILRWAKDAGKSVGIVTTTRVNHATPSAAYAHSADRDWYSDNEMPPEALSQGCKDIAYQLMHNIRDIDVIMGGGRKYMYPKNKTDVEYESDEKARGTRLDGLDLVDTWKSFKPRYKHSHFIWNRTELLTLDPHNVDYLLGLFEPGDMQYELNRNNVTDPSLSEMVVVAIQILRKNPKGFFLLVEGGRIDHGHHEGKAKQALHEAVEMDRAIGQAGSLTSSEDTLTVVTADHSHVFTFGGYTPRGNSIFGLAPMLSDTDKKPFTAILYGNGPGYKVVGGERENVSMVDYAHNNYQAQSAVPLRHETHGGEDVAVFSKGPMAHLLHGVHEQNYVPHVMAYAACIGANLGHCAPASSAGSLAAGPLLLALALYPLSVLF
# [18] = biological target: Voltage-dependent T-type calcium channel subunit alpha-1H (Homo sapiens, UniProt O95180); test: human CACNA1H calcium influx blockade – cell-based, synthetic library set 1, calcium flux (AID 493022); assay type: functional
# [19] = biological target: Glucose-6-phosphate 1-dehydrogenase (Homo sapiens, UniProt P11413); test: inhibition of Homo sapiens G6PD, dose series – biochemical, fluorescence, selectivity assay for P. falciparum G6PD inhibitor project, dose response (AID 504792); assay type: functional
# [20] = biological target: Beta-galactosidase (Escherichia coli, UniProt Q8VNN2); test: detection-enzyme interference by beta-gal modulators – biochemical, E. coli enzyme, set 3, artefact control for CCR6 antagonist project, dose response (AID 504712); assay type: functional
# [21] = biological target: T7, Hexokinase HKDC1 (Homo sapiens, UniProt Q2TB90); test: inhibition of HKDC1 glucose phosphorylation – biochemical, W721R variant, dose response (AID 504729); assay type: functional
# T7 sequence (Q2TB90 whole entry): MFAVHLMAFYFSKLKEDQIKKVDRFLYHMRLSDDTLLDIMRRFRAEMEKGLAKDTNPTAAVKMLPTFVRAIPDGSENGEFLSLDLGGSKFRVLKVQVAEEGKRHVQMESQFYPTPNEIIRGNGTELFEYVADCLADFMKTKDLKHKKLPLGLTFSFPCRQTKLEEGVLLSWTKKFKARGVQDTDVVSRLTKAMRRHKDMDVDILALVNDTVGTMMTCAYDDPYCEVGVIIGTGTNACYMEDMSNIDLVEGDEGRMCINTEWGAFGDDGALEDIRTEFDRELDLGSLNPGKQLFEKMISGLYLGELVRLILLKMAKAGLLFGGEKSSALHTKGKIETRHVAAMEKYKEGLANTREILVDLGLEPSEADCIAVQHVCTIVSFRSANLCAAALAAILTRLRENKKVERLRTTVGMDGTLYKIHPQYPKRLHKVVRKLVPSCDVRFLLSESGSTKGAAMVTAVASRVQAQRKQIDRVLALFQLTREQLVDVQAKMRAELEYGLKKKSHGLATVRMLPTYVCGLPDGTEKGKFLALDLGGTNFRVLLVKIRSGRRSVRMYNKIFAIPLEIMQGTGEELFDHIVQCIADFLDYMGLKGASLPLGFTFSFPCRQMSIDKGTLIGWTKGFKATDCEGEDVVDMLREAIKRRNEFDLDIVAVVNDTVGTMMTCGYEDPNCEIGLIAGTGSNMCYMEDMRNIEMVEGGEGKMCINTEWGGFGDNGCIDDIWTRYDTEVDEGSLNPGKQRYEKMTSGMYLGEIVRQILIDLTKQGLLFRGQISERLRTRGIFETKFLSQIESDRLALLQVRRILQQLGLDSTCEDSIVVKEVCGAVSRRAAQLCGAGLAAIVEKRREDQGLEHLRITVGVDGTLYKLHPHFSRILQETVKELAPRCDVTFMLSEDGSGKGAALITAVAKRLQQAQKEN
# [22] = biological target: Genome polyprotein (dengue virus type 2, UniProt P29990); test: flavivirus cap methylation enzyme inhibition – biochemical, confirmation dose response, primary screen (AID 588689); assay type: functional
# [23] = biological target: T8, Hepatocyte nuclear factor 4-alpha (Homo sapiens, UniProt P41235); assay type: functional, cell-based;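 further: biochemical luminescence-based dose-response counterscreen measuring inhibition of HNF4 dimerization, run alongside a screen for blockers of ABHD5–perilipin-5 interaction; split luciferase complementation of HNF4 fusion proteins in cell lysate measuring dimerization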
# T8 sequence (P41235 whole entry): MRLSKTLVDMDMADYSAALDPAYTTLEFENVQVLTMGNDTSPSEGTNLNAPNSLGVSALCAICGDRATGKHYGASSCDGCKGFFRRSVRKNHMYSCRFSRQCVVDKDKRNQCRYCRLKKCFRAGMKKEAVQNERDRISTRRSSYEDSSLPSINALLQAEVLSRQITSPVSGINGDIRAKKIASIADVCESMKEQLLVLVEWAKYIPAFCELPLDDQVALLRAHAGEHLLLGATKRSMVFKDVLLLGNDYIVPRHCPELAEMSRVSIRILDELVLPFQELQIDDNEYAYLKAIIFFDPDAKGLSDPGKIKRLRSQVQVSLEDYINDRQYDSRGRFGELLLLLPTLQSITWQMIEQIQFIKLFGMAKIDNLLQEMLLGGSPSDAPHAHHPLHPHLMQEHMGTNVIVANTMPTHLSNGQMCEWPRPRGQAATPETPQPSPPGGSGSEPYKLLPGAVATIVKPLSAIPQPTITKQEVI
# [24] = biological target: G-protein coupled receptor 35 (Homo sapiens, UniProt Q9HC97); test: SAR analysis of Antagonists of the GPR35 Receptor using an Image-Based Assay - Set 5. [Related pubchem assays (depositor defined):AID2058, AID2079]; assay type: functional
# [25] = biological target: G-protein coupled receptor 55 (Homo sapiens, UniProt Q9Y2T6); test: SAR Analysis of Selective Antagonists of GPR55 using an Image-Based Assay - Set 3. [Related pubchem assays (depositor defined):AID2058, AID2079]; assay type: functional
# [26] = biological target: Sphingosine 1-phosphate receptor 4 (Homo sapiens, UniProt O95977); test: potency of S1P4 activators – cell-based, fluorescence, synthesized compounds, late-stage follow-up (AID 463107); assay type: functional
# Sequence of Sphingosine 1-phosphate receptor 4 (O95977 whole entry): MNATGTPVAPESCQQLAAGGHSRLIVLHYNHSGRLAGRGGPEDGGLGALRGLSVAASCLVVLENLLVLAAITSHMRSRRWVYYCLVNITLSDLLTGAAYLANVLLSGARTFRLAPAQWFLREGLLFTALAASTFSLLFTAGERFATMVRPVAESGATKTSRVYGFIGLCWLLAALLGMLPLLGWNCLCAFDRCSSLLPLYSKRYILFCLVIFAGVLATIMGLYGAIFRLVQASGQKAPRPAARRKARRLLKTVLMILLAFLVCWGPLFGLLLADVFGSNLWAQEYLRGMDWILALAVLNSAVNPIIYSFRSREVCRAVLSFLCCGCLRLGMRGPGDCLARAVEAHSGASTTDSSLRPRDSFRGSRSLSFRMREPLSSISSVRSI
# T5 sequence (P51452 whole entry): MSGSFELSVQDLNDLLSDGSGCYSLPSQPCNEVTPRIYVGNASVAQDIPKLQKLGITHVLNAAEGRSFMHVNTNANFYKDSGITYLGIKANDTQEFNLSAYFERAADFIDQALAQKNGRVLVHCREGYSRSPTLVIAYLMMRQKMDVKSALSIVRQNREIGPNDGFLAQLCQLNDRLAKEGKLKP
# Sequence of Alkaline phosphatase, placental type (P05187 whole entry): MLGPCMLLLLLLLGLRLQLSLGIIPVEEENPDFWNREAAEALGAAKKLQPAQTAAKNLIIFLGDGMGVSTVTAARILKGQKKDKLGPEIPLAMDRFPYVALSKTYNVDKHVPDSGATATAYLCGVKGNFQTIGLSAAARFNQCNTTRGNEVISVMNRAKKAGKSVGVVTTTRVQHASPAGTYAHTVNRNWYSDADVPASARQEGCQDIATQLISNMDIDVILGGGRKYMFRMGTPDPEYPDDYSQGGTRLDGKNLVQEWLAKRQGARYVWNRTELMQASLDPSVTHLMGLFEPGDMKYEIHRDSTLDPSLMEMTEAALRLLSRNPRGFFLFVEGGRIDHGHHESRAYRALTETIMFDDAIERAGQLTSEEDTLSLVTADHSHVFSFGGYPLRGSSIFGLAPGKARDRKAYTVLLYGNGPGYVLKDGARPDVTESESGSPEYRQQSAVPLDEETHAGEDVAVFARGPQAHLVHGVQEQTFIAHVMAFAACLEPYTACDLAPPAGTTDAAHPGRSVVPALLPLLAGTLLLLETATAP
# Sequence of Glyceraldehyde-3-phosphate dehydrogenase (P04406 whole entry): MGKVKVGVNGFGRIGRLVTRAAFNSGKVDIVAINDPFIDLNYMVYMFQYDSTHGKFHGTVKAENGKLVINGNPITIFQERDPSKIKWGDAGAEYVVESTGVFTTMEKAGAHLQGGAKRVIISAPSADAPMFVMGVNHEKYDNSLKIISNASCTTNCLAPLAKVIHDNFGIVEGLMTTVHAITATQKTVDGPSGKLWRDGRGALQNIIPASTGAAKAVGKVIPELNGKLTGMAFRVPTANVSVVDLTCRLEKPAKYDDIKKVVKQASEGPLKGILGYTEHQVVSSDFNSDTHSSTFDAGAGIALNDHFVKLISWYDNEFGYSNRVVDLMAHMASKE
# Sequence of Voltage-dependent T-type calcium channel subunit alpha-1H (O95180 whole entry): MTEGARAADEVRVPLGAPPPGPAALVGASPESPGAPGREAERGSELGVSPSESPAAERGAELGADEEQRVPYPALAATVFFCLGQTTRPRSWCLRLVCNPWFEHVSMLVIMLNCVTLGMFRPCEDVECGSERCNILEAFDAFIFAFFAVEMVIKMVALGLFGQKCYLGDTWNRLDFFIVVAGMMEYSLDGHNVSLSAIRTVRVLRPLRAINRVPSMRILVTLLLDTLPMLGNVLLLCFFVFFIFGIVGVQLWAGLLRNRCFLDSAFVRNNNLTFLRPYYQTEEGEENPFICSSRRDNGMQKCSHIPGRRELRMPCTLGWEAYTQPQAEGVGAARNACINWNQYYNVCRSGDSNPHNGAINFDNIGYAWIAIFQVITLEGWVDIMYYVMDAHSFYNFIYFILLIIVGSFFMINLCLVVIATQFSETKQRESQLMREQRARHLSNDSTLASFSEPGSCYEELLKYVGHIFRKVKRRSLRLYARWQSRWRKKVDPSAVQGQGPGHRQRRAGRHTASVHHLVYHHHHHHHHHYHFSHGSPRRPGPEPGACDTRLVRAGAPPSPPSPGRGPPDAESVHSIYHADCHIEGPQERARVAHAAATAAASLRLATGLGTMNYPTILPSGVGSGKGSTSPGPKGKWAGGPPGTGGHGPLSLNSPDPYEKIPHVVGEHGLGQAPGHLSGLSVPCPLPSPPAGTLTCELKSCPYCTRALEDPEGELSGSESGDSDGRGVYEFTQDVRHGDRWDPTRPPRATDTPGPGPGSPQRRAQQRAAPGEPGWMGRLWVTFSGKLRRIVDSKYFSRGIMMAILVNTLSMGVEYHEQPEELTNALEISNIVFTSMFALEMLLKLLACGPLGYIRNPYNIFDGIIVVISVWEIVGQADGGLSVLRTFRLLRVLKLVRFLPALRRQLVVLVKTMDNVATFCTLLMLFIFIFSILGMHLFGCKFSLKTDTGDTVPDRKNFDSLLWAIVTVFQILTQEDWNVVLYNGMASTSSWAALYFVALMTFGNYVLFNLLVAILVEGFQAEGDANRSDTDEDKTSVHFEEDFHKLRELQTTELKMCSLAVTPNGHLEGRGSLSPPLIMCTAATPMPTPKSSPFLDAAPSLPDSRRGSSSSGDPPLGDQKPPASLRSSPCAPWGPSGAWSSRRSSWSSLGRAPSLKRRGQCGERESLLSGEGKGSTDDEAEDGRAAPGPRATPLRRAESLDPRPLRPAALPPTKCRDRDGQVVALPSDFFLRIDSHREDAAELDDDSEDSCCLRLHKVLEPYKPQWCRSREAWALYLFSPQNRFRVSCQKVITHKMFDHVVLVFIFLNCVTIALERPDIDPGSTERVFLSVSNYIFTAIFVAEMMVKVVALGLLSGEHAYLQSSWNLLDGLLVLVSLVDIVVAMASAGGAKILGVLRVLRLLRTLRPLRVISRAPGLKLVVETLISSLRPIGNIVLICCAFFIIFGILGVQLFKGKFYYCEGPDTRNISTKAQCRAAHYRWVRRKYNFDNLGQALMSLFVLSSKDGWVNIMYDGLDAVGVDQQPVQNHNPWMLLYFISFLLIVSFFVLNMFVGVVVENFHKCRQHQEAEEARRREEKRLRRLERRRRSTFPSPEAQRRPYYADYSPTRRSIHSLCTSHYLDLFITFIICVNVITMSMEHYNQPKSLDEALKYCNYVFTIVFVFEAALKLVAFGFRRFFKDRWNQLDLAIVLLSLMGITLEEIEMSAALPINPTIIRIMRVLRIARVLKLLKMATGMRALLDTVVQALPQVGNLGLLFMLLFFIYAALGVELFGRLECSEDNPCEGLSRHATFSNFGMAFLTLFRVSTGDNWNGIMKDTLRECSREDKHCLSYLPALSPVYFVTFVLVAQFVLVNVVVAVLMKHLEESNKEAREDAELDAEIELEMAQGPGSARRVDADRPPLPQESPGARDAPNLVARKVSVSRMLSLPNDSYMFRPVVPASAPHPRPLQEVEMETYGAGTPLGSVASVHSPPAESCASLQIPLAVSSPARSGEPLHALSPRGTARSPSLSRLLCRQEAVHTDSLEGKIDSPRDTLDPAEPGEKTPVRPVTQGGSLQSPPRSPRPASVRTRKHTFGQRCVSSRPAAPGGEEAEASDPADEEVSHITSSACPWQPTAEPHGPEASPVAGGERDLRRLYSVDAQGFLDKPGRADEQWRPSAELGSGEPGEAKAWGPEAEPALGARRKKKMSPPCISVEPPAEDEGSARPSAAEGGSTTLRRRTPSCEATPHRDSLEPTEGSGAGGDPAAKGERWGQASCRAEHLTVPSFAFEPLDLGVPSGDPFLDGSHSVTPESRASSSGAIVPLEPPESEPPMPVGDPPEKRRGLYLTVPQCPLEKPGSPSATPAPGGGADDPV
# Sequence of Glucose-6-phosphate 1-dehydrogenase (P11413 whole entry): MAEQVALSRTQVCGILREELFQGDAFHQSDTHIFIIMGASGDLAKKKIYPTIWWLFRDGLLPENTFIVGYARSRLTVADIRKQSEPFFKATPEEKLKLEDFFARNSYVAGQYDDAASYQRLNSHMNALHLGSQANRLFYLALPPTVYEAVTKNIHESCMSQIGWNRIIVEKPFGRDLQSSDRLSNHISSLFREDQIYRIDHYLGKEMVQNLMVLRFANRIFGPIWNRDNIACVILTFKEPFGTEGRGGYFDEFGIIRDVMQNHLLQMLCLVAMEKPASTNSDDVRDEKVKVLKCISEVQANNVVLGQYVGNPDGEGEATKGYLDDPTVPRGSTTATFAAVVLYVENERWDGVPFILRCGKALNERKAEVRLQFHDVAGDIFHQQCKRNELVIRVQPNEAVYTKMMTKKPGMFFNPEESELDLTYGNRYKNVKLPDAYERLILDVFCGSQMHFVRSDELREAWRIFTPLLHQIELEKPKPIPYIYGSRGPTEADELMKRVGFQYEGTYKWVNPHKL
# Sequence of G-protein coupled receptor 55 (Q9Y2T6 whole entry): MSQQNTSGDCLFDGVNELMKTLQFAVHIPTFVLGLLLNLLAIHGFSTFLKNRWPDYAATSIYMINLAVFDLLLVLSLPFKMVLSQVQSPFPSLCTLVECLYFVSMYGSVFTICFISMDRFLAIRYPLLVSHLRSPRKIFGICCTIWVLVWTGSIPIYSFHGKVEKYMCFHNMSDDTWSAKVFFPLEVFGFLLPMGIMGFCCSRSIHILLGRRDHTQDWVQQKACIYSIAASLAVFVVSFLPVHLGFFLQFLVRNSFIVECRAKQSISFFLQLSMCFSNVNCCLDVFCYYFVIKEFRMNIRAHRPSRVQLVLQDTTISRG
# Sequence of G-protein coupled receptor 35 (Q9HC97 whole entry): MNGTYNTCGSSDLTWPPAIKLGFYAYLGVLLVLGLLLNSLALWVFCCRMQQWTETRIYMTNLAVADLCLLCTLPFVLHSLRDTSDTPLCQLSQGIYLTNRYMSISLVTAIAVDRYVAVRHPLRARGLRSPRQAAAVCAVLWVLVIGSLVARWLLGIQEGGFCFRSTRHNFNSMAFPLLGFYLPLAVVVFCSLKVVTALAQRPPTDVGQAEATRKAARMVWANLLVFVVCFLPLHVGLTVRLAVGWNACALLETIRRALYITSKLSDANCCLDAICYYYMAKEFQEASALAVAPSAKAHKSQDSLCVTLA
smiles,measurement,setting,value
Cc1ccc(C(=O)Nc2sc(C)c(-c3ccccc3)c2C(N)=O)cc1[N+](=O)[O-],EC50,[1],> 20 µM (inactive)
same,IC50,[2],< 312 nM (active)
same,EC50,[3],< 160 nM (active)
same,IC50,[4],> 20 µM (inactive)
same,EC50,[5],< 310 nM (inactive)
same,IC50,[6],> 20 µM (inactive)
same,IC50,[7],> 20 µM (inactive)
CSc1cccc(NC(=S)NC(=O)CCc2ccccc2)c1,EC50,[8],> 100 µM (inactive)
O=c1/c(=C/c2cccc(Br)c2)sc2nc3cc(Br)cnc3n12,IC50,[9],> 100 µM (not active)
same,IC50,[10],> 100 µM (not active)
same,IC50,[11],> 100 µM (inactive)
same,IC50,[12],> 100 µM (inactive)
same,IC50,[13],> 100 µM (inactive)
same,IC50,[14],98.3 µM (active)
same,IC50,[15],> 100 µM (inactive)
O=C(NC1(C(F)(F)F)Oc2ccccc2O1)Sc1ccccc1,IC50,[16],92.3 µM (active)
same,IC50,[17],> 100 µM (inactive)
Cc1ccc(-c2nnc(NC(=O)COc3ccccc3Cl)o2)cc1C,EC50,[18],1.3 µM (active)
CN(C)c1ccc(Cc2cc3c(O)ccc(O)c3cc(Cc3ccc(N(C)C)cc3)c2=O)cc1,IC50,[19],56.7 µM (inactive)
same,IC50,[20],> 66.6 µM (inactive)
same,IC50,[21],10.9 µM (active)
same,IC50,[22],44.1 µM (active)
same,IC50,[23],4.6 µM (active)
COC(=O)c1cnn(-c2ccc(Cl)cc2)c1/C=N/NC(N)=S,IC50,[24],4.6 µM (active)
same,IC50,[25],> 32 µM (inactive)
Cc1ccc(OCCCOc2ccc(Cl)cc2Cl)c([N+](=O)[O-])n1,EC50,[26],> 50 µM (inactive)
